Reference: patent US20170191032A1, “IDENTIFICATION AND ISOLATION OF NEURAL STEM CELLS AND NEUROSPHERE INITIATING CELLS” (The Board of Regents of the University of Texas System, priority 2014, published 2017)
Each block holds one compound with its values, some of them ahead of it.

Legend:
[1] = tested on: GEPCOT cells; details: 3.0 mM EDTA in staining medium (slight excess over 2.7 mM divalent cations)
Experimental: In the inventors' experiments, the staining medium the inventors employed contained 3.0 mM EDTA, enough to neutralize 2.7 mM of divalent cations in the staining medium (with a small surplus). […] The inventors pre-diluted 0.5M EDTA (made from Na2H2EDTA, pH 8.0) to 77.7 mM (309 mOsm) before adding it to the staining medium.
SVZ cell preparation. SVZs from adult (8-60 week old) mice were dissected as described (Mirzadeh et al., 2010). SVZs were minced and digested with 300 μl of trypsin solution (Ca and Mg-free HBSS, 10 mM HEPES, 0.5 mM EDTA, 0.25 mg/mL trypsin (EMD Millipore), 10 μg/mL DNase I (Roche), pH 7.6) at 37° C. for 20 minutes. Digestion was quenched with three volumes of staining medium (440 ml Leibovitz L-15 medium, 50 ml water, 5 ml 1M HEPES pH 7.3-7.4, 5 ml 100× Pen-Strep, 20 ml 77.7 mM EDTA pH 8.0 [prepared from Na2H2EDTA], 1 g bovine serum albumin [Sigma A7030]) containing 100 μg/ml trypsin inhibitor (Sigma T6522) and 10 μg/ml DNase I (Roche).

[2] = tested on: GEPCOT cells; assay: TMZ regeneration assay: GEPCOT cells per SVZ by flow cytometry; details: for number of unlabeled GEPCOTs per SVZ: Ascl1CreERT2 reporter mice, tamoxifen then TMZ
Experimental: TMZ regeneration assay. TMZ (temozolomide; Sigma T2577) was dissolved in 25% DMSO/75% 0.9% saline solution at 10 mg/ml by heating briefly to 90-100° C., then shaking and rapidly cooling. Mice were injected at 100 mg/kg/day for three consecutive days then allowed to recover for 3-90 days before analysis. Mice with enlarged spleen or thymus (sometimes present at 90 days after TMZ treatment) were excluded from analysis.
To stain SVZ cells with the combination of markers used to isolate GEPCOT or pre-GEPCOT cells, dissociated SVZ cells were centrifuged (220 g, 4 min, 4° C.) and resuspended in 100 μl staining medium per brain. Then the following antibodies were added: BV421 anti-Ter119 (Biolegend 116233, 1/100), BV421 anti-CD45 (Biolegend 103133, 1/100), APC-eFluor 780 anti-CD24 (eBioscience 47-0242-82, 1/200), 5A5 ascites (anti-PSA-NCAM; Developmental Studies Hybridoma Bank, 1/100), O4 ascites (1/200), anti-PlexinB2 (eBioscience 14-5665-82, 1/100), biotinylated anti-EGFR (R&D Systems BAF1280, 1/200), anti-Glast (Miltenyi Biotec 130-095-822, 1/10), and DAPI (50 μg/ml, 1/100). After adding antibodies, the cells were incubated on ice for 45 minutes, then washed with 2.5 ml fresh staining medium and pelleted (220 g for 4 minutes at 4° C.) and resuspended in secondary antibodies. Typically, the inventors used the following combination: APC anti-mouse IgG2a (Jackson Immunoresearch 115-135-206,1/200), PE anti-hamster IgG (Jackson Immunoresearch 127-115-160, 1/200), PE-Cy7 anti-mouse IgM (eBioscience 25-5790-82, 1/100), BV605-Streptavidin (BD Biosciences 563260, 1/200). However, when analyzing mice expressing tdTomato, the inventors used the following alternative secondary antibodies: PerCP-eFluor 710 anti-mouse IgG (eBioscience 46-4010-82, 1/100), APC anti-hamster IgG (Jackson Immunoresearch 127-135-160, 1/200), PE-Cy7 anti-mouse IgM (eBioscience 25-5790-82, 1/100), and BV605-Streptavidin (BD Biosciences 563260, 1/200). Cells were stained with secondary antibodies on ice for 45 minutes, then washed and pelleted as above, and analyzed on the FACSAria in a volume of 200 μl per brain.

[3] = tested on: NICs; assay: TMZ regeneration assay: neurosphere-initiating cells (NICs); type: in vivo, mouse
Source text: (§1) All data represent mean ±s.d.
(§2) The cell suspension was then filtered through a 45-micron mesh, counted on a hemocytometer, and added to culture or processed for flow cytometry. […] For adherent colony formation, Tg(Ubc-GFP) SVZ cells were co-cultured with 80-90% confluent nontransgenic neonatal SVZ-derived astrocytes isolated and passaged twice prior to the experiment. GFP fluorescence was used to assess colony formation after 12-20 days in culture.

[4] = Body mass after TMZ treatment; type: in vivo, mouse; details: three days after TMZ, 100 mg/kg/day i.p. for 3 consecutive days
[5] = tested on: SVZ cells; assay: TMZ regeneration assay: total and dividing (BrdU) SVZ cells; type: in vivo, mouse
Source text: as §1

[6] = tested on: adult SVZ cells; assay: Neurosphere formation (clonogenesis) of adult SVZ cells with culture additives; type: cell-based, mouse
Source text: Rock inhibitor (Y-27632) and IGF1 increase clonogenesis after sorting. The process of being sorted has a negative effect on neurosphere formation from adult SVZ cells: at the beginning of their experiments the inventors observed a 3-fold loss of activity in sorted live SVZ cells compared to crude unsorted cells. […] The inventors wondered how to sort gently to overcome the fragility of adult SVZ cells.
(§3) The mechanisms underlying these effects are unclear but may involve promotion of cell survival after sorting or repression of BMP signaling (Hsieh et al., 2004). When using both these culture additives, there was little difference between sorted live SVZ cells and an equal number of cells added to culture by pipette in terms of the numbers of neurospheres they made.
After adding 10% CEE to the culture medium, sorted cell-derived primary neurospheres were indistinguishable in size and number from neurospheres cultured from cells pipetted into culture.
as §2

[7] = tested on: neonatal SVZ cells; assay: Neurosphere formation of neonatal SVZ cells with culture additive; type: cell-based, mouse; details: 10 μM
Source text: as §3

[8] = three days after TMZ (100 mg/kg/day i.p., 3 days)

Compound: O=C(O)CN(CCN(CC(=O)O)CC(=O)O)CC(=O)O [EDTA]
effect on the yield of GEPCOT cells [1]: 2-3 fold

loss of body mass as compared to before TMZ treatment [4]: less than 3%
Compound: Cn1nnc2c(C(N)=O)ncn2c1=O [TMZ, temozolomide]
GEPCOTs recovered, % of normal levels ([2]; 16 days after TMZ treatment): 32 % of normal
GEPCOTs recovered, % of normal levels ([2]; 90 days after TMZ treatment): 55 % of normal
number of unlabeled GEPCOTs per SVZ ([2]; 3 days after TMZ): 120±50
number of unlabeled GEPCOTs per SVZ ([2]; 35 days after TMZ): 640±210
GEPCOTs remaining relative to saline-treated control mice ([2]; three days after TMZ treatment): 10%
NICs recovered, % of normal levels ([3]; 16 days after TMZ treatment): 20 % of normal
NICs recovered, % of normal ([3]; 90 days after TMZ): 55 % of normal
NICs remaining relative to saline-treated control mice ([3]; three days after TMZ): 0.7%
number of dividing SVZ cells, recovery as % of normal ([5]; 90 days after TMZ treatment): 50 % of normal
reduction in the number of dividing SVZ cells, based on BrdU incorporation [5, 8]: 80%
reduction in the total number of cells per SVZ [5, 8]: 23%

Compound: IGF1: IGF-1 growth factor (R&D Systems 291-G1) added to culture medium
clonogenesis after sorting ([6]; 20 ng/ml in culture medium, in addition to Y-27632): further improved clonogenesis after sorting

Compound: Y-27632 hydrochloride
effect on neurosphere formation ([7]; crude neonatal SVZ cells): did not have any effect
effect on neurosphere formation ([7]; sorted neonatal SVZ cells): did not have any effect
increase in neurosphere formation ([6]; 10 μM in culture medium, adult cells after sorting): approximately two-fold
effect on neurosphere formation ([6]; 10 μM, adult SVZ cells pipetted into the culture medium): did not have any effect
